Assay results as given in ChEMBL document CHEMBL5291721, “A preclinical secondary pharmacology resource illuminates target-adverse drug reaction associations of marketed drugs” (Nat Commun, 2023).

What was measured:
[1] = target: T1, Peroxisome proliferator-activated receptor alpha (Homo sapiens, UniProt Q07869); type: functional
T1 sequence (Q07869 whole entry): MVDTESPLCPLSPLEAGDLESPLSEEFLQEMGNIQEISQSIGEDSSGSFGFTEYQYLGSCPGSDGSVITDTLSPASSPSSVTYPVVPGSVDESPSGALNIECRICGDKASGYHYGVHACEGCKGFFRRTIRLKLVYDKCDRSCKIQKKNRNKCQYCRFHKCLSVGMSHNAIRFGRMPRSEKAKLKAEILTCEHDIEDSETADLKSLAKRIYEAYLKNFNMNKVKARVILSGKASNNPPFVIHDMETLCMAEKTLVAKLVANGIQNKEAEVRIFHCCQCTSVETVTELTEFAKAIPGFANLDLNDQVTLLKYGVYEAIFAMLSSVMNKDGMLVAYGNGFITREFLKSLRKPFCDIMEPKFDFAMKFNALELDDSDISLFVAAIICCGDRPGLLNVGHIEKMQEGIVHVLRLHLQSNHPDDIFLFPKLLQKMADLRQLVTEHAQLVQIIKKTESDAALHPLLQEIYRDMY

[2] = target: T2, Muscarinic acetylcholine receptor M2 (Homo sapiens, UniProt P08172)
T2 sequence (P08172 whole entry): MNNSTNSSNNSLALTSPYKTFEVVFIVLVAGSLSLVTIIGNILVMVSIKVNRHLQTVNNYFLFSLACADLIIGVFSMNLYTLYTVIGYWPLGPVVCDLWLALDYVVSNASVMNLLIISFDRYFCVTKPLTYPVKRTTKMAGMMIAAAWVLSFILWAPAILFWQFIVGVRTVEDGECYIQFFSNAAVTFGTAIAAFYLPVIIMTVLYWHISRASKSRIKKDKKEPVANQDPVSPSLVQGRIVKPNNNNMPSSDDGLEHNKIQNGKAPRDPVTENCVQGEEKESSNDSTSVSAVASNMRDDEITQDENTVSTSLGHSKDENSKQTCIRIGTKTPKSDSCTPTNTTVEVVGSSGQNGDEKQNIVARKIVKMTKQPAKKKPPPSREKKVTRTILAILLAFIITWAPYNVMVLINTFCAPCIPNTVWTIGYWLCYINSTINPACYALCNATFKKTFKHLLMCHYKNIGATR

[3] = target: T3, Glucocorticoid receptor (Homo sapiens, UniProt P04150); type: functional
T3 sequence (P04150 whole entry): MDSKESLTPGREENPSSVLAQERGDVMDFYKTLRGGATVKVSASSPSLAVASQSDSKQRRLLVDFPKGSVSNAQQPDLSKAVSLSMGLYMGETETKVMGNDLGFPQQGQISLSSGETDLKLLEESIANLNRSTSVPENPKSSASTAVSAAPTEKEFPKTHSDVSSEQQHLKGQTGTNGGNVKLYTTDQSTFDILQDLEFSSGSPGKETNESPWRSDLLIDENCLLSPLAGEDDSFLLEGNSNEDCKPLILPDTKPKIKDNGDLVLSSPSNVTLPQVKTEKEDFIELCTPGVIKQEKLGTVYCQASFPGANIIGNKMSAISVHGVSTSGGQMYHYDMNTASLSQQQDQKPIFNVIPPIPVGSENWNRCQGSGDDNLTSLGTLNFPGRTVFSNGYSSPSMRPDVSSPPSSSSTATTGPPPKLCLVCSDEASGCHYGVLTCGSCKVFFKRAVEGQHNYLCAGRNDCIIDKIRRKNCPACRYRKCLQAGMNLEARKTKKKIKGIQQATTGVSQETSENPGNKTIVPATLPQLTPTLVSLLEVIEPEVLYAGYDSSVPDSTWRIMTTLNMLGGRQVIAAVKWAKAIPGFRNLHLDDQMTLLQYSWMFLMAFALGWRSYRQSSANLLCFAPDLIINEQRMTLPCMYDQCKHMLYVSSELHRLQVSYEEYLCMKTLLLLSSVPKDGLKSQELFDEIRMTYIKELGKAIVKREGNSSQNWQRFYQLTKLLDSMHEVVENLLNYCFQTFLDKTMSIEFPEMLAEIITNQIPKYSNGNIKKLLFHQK

[4] = target: T3, Glucocorticoid receptor; type: functional; remark: listed apart in the source
[5] = target: T4, Estrogen receptor (Homo sapiens, UniProt P03372); type: functional
T4 sequence (P03372 whole entry): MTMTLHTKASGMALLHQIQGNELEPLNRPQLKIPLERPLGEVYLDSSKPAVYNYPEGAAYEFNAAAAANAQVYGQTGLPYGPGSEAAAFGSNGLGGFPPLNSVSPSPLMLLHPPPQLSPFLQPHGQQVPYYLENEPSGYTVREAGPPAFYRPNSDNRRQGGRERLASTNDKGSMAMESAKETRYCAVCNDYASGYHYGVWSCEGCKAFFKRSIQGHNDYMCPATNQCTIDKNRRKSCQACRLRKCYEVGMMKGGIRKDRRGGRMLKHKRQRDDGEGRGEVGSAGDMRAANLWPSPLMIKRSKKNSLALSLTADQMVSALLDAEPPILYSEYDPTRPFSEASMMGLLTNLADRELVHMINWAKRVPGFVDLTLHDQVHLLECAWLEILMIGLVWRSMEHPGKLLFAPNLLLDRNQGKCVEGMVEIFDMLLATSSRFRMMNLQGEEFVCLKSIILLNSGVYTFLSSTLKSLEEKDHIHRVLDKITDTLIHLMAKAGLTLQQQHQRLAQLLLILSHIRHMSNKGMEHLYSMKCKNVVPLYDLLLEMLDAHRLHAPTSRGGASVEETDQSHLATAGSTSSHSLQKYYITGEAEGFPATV

[6] = target: T4, Estrogen receptor; type: functional; remark: listed apart in the source
[7] = target: Histamine H2 receptor (Homo sapiens, UniProt P25021)
Sequence of Histamine H2 receptor (P25021 whole entry): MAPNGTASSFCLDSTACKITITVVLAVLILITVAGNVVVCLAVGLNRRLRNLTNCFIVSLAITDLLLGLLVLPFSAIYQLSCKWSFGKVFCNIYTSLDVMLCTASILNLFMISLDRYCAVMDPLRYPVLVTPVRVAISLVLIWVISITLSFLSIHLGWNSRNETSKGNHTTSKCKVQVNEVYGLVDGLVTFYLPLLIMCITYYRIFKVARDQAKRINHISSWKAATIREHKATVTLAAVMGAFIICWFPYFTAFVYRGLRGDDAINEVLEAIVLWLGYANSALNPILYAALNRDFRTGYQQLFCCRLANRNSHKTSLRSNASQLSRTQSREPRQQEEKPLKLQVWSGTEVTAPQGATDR

[8] = target: T5, D(4) dopamine receptor (Homo sapiens, UniProt P21917)
T5 sequence (P21917 whole entry): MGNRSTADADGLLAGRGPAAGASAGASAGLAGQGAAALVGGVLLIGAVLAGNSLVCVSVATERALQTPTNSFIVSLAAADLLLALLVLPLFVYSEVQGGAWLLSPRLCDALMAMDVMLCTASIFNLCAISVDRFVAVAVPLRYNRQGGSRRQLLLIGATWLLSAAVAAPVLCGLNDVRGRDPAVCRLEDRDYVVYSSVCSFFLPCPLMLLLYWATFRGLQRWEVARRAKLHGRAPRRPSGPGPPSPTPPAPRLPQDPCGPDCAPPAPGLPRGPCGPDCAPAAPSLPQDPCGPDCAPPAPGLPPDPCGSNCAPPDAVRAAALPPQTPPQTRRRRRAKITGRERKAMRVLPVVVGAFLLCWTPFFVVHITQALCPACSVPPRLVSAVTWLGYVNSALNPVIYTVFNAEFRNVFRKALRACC

[9] = target: 5-hydroxytryptamine receptor 2A (Homo sapiens, UniProt P28223)
Sequence of 5-hydroxytryptamine receptor 2A (P28223 whole entry): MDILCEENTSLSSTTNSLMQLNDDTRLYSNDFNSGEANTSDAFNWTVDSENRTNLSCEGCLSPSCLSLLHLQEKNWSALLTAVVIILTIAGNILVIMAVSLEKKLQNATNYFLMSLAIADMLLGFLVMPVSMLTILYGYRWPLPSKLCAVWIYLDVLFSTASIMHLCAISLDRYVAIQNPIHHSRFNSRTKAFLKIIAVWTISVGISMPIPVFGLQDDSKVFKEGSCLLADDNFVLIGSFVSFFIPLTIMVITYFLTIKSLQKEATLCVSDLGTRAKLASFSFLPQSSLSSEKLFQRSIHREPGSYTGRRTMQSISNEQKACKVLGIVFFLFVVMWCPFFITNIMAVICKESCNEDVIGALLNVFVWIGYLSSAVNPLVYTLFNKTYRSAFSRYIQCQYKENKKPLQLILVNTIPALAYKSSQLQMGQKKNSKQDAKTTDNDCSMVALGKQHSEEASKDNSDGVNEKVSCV
Also: assay procedure not described here.

Question: With CC(C)(Oc1ccc(Cl)cc1)C(=O)OCCOC(=O)c1cccnc1 [ETOFIBRATE] as the compound, how does the AC50 [1] read?
Answer: > 30 µM

Question: Which AC50 [2] does the source give for CN1CCCC(CC2c3ccccc3Sc3ccccc32)C1 (stereo not drawn) [METHIXENE] here?
Answer: 5.3 nM

Question: With CC1(C)O[C@@H]2C[C@H]3[C@@H]4CCC5=CC(=O)C=C[C@]5(C)[C@@]4(F)[C@@H](O)C[C@]3(C)[C@]2(C(=O)CO)O1 [TRIAMCINOLONE ACETONIDE] as the compound, how does the AC50 [3] read?
Answer: 0.0039 µM

Question: Which results are given for COc1cccc2c1C(=O)c1c(O)c3c(c(O)c1C2=O)C[C@@](O)(C(=O)CO)C[C@@H]3O[C@H]1C[C@H](N)[C@H](O)[C@H](C)O1 [DOXORUBICIN]?
Answer: AC50 [4]: > 10 µM; AC50 [3]: 11 µM; AC50 [5]: > 3 µM; AC50 [6]: > 10 µM

Question: What does the source list for N=C(N)NC(=O)c1nc(Cl)c(N)nc1N [AMILORIDE]?
Answer: AC50 [7]: > 10 µM; AC50 [8]: > 10 µM

Question: Which AC50 [9] does the source give for CCC(=O)c1ccc2c(c1)N(CC(C)N(C)C)c1ccccc1S2 (stereo not drawn) [PROPIOMAZINE] here?
Answer: 0.0233 µM

Question: With Cc1ccc(O)c([C@H](CCN(C(C)C)C(C)C)c2ccccc2)c1 [TOLTERODINE] as the compound, how does the AC50 [7] read?
Answer: 3.2 µM

Question: What about the AC50 [8] of the same compound?
Answer: > 10 µM

Question: What about the AC50 [9] of the same compound?
Answer: 8.84 µM
